These results are taken from US11529354B2, “Methods and compositions for the treatment of tuberculosis” (PRESIDENT AND FELLOWS OF HARVARD COLLEGE, priority 2017, dated 2022).

Data set [1] deals with clinical Mycobacterium tuberculosis strains (HsRs: 90#, 140#, 74#). Kind of data set: microbe, parasite or virus in culture. It counts as cell-based.
The subject of data set [2] is Bacillus Calmette-Guérin (BCG). As to the kind of experiment: organism not typed. It counts as cell-based, Mycobacterium bovis.
Data set [3] relates to M. cheelonae BZ-4. As to the kind of experiment: MIC on closely related bacteria: M. cheelonae. It counts as cell-based.
Data set [4] concerns M. scrofulaceum BZ-20. As to the kind of experiment: MIC on closely related bacteria: M. scrofulaceum. It counts as cell-based. Conditions: Mycobacterium scrofulaceum, BZ20.
For data set [5], the system named is M. avium A209. As to the kind of experiment: MIC on closely related bacteria: M. avium. It counts as cell-based. The following applies: Mycobacterium avium.
The test system of data set [6] is M. abscessus BZ-24. Kind of data set: MIC on closely related bacteria: M. abscessus. The following applies: Mycobacteroides abscessus, BZ24. In kind it is cell-based.
The test system of data set [7] is M. xenopi BZ-23. As to the kind of experiment: MIC on closely related bacteria: M. xenopi. It counts as cell-based. The following applies: Mycobacterium xenopi, BZ23.
The test system of data set [8] is M. terrae BZ-15. As to the kind of experiment: MIC on closely related bacteria: M. terrae. It counts as cell-based. Conditions: Mycolicibacter terrae, BZ15.
Data set [9] concerns MTB H37Rv. Kind of data set: microbe, parasite or virus in culture. It counts as cell-based, Mycobacterium tuberculosis. The following applies: susceptible H37Rv.
Data set [10] concerns intracellular BCG within macrophages. It counts as cell-based, Mycobacterium bovis.
Data set [11] is described as follows: in vitro. Conditions: human.
Data set [12] concerns GFP-expressing BCG in infected THP-1 cells. As to the kind of experiment: microbe, parasite or virus in culture. It counts as cell-based. The following applies: Mycobacterium tuberculosis variant bovis BCG, THP-1, read-out: IC50, growth of GFP-expressing BCG in infected THP-1 cells.
A short description of data set [13]: MTT cytotoxicity assay. Conditions: human.
Where [14] appears, read: read-out: MIC from in vitro validation.
Setting [15] is: read-out: MIC from in vitro validation on BCG.

≈ marks a conversion by molar mass, not a printed value. Like-named read-outs stand apart in the source and are kept apart here. Some results are limits rather than exact numbers.

For `Cc1ccc2[nH]c3c(c2c1)CCCC3NCc1ccccc1` (centres unmarked) [CAS 118498-98-9, N-benzyl-6-methyl-2,3,4,9-tetrahydro-1H-carbazol-1-amine], the MIC in data set [1] came out at 6.4 µg/mL (≈ 22 µM); in data set [1] (strain 74#, HsRs, read-out: MIC), 6.4 µg/mL (≈ 22 µM); in data set [1] (strain 140#, HsRs, read-out: MIC) it was 3.2 µg/mL (≈ 11 µM); in data set [2] (setting [14]) it was 32 µg/mL (≈ 110 µM).
Turning to `O=c1/c(=C/c2cc(Br)ccc2F)sc2nc3ccccc3n12` [CAS 292169-72-3, (Z)-2-(5-Bromo-2-fluorobenzylidene)benzo[4,5]imidazo[2,1-b]thiazol-3(2H)-one], the MIC in data set [2] (setting [14]) is over 128 µg/mL.
With `O=C1CC(c2cccc(O)c2)Nc2ccc3ccccc3c21` (centres unmarked) [CAS 333759-52-7, 3-(3-hydroxyphenyl)-3,4-dihydrobenzo[f]quinolin-1(2H)-one], the MIC in data set [2] (setting [14]) was over 128 µg/mL.
Consider `O=[N+]([O-])c1cccc(CNC2CCCc3ccccc32)c1` (centres unmarked) [CAS 353779-33-6, N-(3-nitrobenzyl)-1,2,3,4-tetrahydronaphthalen-1-amine], for which, in data set [2] (setting [14]), the MIC worked out at 128 µg/mL (≈ 453 µM).
For the compound `O=[N+]([O-])c1ccccc1CNCCc1c[nH]c2ccccc12` [CAS 355816-45-4, 2-(1H-indol-3-yl)-N-(2-nitrobenzyl)ethanamine], the MIC in [2] (setting [14]) was 128 µg/mL (≈ 433 µM).
Still for that read-out and setting: to `COc1ccc(N2COc3ccc4cc(Br)ccc4c3C2)cc1` [CAS 376374-34-4, 8-bromo-2-(4-methoxyphenyl)-2,3-dihydro-1H-naphtho[1,2-e][1,3]oxazine] belongs 128 µg/mL (≈ 346 µM).
On the same count and under the same terms, to `O=C(O)C1C2C(=O)N(Cc3ccccn3)C[C@]23C=C[C@H]1O3` (stereo partly drawn) [CAS 1164528-69-1, (3aS,6R)-1-oxo-2-(pyridin-2-ylmethyl)-1,2,3,6,7,7a-hexahydro-3a,6-epoxyisoindole-7-carboxylic acid] belongs over 128 µg/mL.
In the case of `c1ccc2cc(OCCOCCOc3ccc4ccccc4c3)ccc2c1` [NSC 37219, 2-[2-(2-naphthalen-2-yloxyethoxy)ethoxy]naphthalene], the MIC in data set [2] (setting [15]) was 80 µg/mL (≈ 223 µM).
Consider `O=C(Nc1cccc(-c2nc3ccccc3[nH]2)c1)c1ccc(C(=O)Nc2cccc(-c3nc4ccccc4[nH]3)c2)cc1` [NSC 61610, 1-N,4-N-bis[3-(1H-benzimidazol-2-yl)phenyl]benzene-1,4-dicarboxamide], for which the MIC in data set [2] (setting [15]) was 40 µg/mL (≈ 72.9 µM).
Consider `O=C(Nc1ccc(Oc2ccc(NC(=O)Nc3ccccc3Cl)cc2)cc1)Nc1ccccc1Cl` [NSC 80731, 1-(2-chlorophenyl)-3-[4-[4-[(2-chlorophenyl)carbamoylamino]phenoxy]phenyl]urea], for which the MIC in [2] (setting [15]) worked out at 80 µg/mL (≈ 158 µM).
As for `CO[C@@H]1[C@@H](OC(=O)c2ccc(C)[nH]2)[C@@H](O)[C@H](Oc2ccc3c(O)c(NC(=O)c4ccc(O)c(CC=C(C)C)c4)c(=O)oc3c2Cl)OC1(C)C` [NSC 227186, [(3R,4S,5R,6S)-6-[8-chloro-4-hydroxy-3-[[4-hydroxy-3-(3-methylbut-2-enyl)benzoyl]amino]-2-oxochromen-7-yl]oxy-5-hydroxy-3-methoxy-2,2-dimethyloxan-4-yl]5-methyl-1H-pyrrole-2-carboxylate], the MIC is 40 µg/mL (≈ 57.4 µM) in [3]; 80 µg/mL (≈ 115 µM) in [4]; 80 µg/mL (≈ 115 µM) in [5]; 40 µg/mL (≈ 57.4 µM) in data set [6]; 80 µg/mL (≈ 115 µM) in data set [7]; 0.625 µg/mL (≈ 0.897 µM) in data set [2] (setting [15]). Besides, the MIC in [8] was over 80 µg/mL; in [9] (Mycobacterium tuberculosis, Table 4, read-out: MIC), under 0.625 µg/mL. Further, the “performance on BCG compared with isoniazid and rifampicin” value in data set [2] is “performed at levels comparable of isoniazid and rifampicin”.
Turning to `Cn1ccc(=Nc2ccc(NC(=O)c3ccc(N=c4ccn(C)c5ccc([N+](=O)[O-])cc45)cc3)cc2)cc1` [NSC 260594, 4-[(1-methyl-6-nitroquinolin-4-ylidene)amino]-N-[4-[(1-methylpyridin-4-ylidene)amino]phenyl]benzamide], the MIC in data set [3] is over 80 µg/mL; in data set [4] it was over 80 µg/mL; in [5], 1.25 µg/mL (≈ 2.48 µM); in [6] it was over 80 µg/mL; in data set [7], over 80 µg/mL; in data set [2] (setting [15]), 0.078 µg/mL (≈ 0.155 µM). Moreover, the MIC in [8] is 2.5 µg/mL (≈ 4.95 µM); in data set [9] (Mycobacterium tuberculosis, Table 7 and text, read-out: MIC), under 0.625 µg/mL; in [9] (Table 4) it was under 0.625 µg/mL; in data set [9] (Table 7 and text) it was under 0.625 µg/mL. Also, the “intracellular anti-TB activity against BCG” value in data set [10] is “time- and concentration-dependent anti-TB activity”. Also, the half-maximal inhibitory concentration (IC50) was determined as 7.5 µg/mL (≈ 14.9 µM) in [11] and 7.8 µg/mL (≈ 15.5 µM) in data set [12]. In addition, the “performance on BCG compared with isoniazid and rifampicin” value in data set [2] was “performed at levels comparable of isoniazid and rifampicin”.
As to `O=[N+]([O-])c1ccc(C2CC(c3ccccc3)=Nc3ccccc3S2)cc1` (centres unmarked) [NSC 270738, 2-(4-nitrophenyl)-4-phenyl-2,3-dihydro-1,5-benzothiazepine], the MIC in [2] (setting [15]) is 5 µg/mL (≈ 13.9 µM).
Take `CO[C@H]1/C=C/O[C@@]2(C)Oc3c(C)c(O)c4c(O)c(c(/C=N/N5CCN(C)CC5)c(O)c4c3C2=O)NC(=O)/C(C)=C\C=C\[C@H](C)[C@H](O)[C@@H](C)[C@@H](O)[C@@H](C)[C@H](OC(C)=O)[C@@H]1C` [Rifampicin, reference compound]: inhibition in data set [13] was half-maximal at 1 µg/mL (≈ 1.22 µM) (IC50).
